Test results: patent US20230085307A1, “PYRIDAZINONE COMPOUND AND HERBICIDE” (NISSAN CHEMICAL CORPORATION, priority 2019, published 2023)

Tests used:
Italian ryegrass [1] = assay: Test Example 4: herbicidal effect by soil treatment (Table 19, symbol K); type: in vivo, Italian ryegrass (Lolium multiflorum); settings: amount of applied herbicide 320 g/ha
Method in brief: (§1)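 Scoring uses the grading scale of an earlier test, three weeks post-application. Treatment consists of spraying a diluted emulsion formulation across the surface of sterilized diluvial soil in which seeds are buried near 1.5 cm deep; boxes are kept in a greenhouse between 25° C. and 30° C.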

blackgrass [2] = assay: Test Example 4: herbicidal effect by soil treatment (Table 19, symbol J); type: in vivo, blackgrass (Alopecurus myosuroides); settings: amount of applied herbicide 320 g/ha
Method in brief: as §1

lambsquarters [3] = assay: Test Example 4: herbicidal effect by soil treatment (Table 19, symbol O); type: in vivo, lambsquarters (Chenopodium album); settings: amount of applied herbicide 320 g/ha
Method in brief: as §1

wild oat [4] = assay: Test Example 5: herbicidal effect by foliage application, plastic box (Table 20, symbol I); type: in vivo, wild oat (Avena fatua); settings: foliage application, 320 g/ha, evaluated three weeks after application
Method in brief: (§2)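 Post-emergence foliar test in sterilized diluvial soil. Compound applied as water-diluted emulsion at a predetermined rate to 14-day-old plants; evaluation at three weeks.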

velvetleaf [5] = assay: Test Example 4: herbicidal effect by soil treatment (Table 19, symbol M); type: in vivo, velvetleaf (Abutilon theophrasti); settings: amount of applied herbicide 320 g/ha
Method in brief: as §1

Chinese sprangletop = assay: Test Example 3: herbicidal effect by foliage application, Wagner pot (Table 18, symbol D); type: in vivo, chinese sprangletop (Leptochloa chinensis); settings: amount of applied herbicide 320 g/ha
Method in brief: (§3)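 Plants were sown in alluvial soil held under 0.1–0.5 cm standing water and grown 14 days in a greenhouse at 25–30 °C. An emulsifiable formulation, water-diluted to the set dose, was then sprayed onto the foliage, and effects were scored three weeks later using previously defined criteria.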

blackgrass [6] = assay: Test Example 5: herbicidal effect by foliage application, plastic box (Table 20, symbol J); type: in vivo, blackgrass (Alopecurus myosuroides); settings: foliage application, 320 g/ha, evaluated three weeks after application
Method in brief: as §2

windgrass [7] = assay: Test Example 5: herbicidal effect by foliage application, plastic box (Table 20, symbol L); type: in vivo, windgrass (Apera spica-venti); settings: foliage application, 320 g/ha, evaluated three weeks after application
Method in brief: as §2

wild oat [8] = assay: Test Example 4: herbicidal effect by soil treatment (Table 19, symbol I); type: in vivo, wild oat (Avena fatua); settings: amount of applied herbicide 320 g/ha
Method in brief: as §1

green foxtail [9] = assay: Test Example 5: herbicidal effect by foliage application, plastic box (Table 20, symbol G); type: in vivo, green foxtail (Setaria viridis); settings: foliage application, 320 g/ha, evaluated three weeks after application
Method in brief: as §2

barnyard grass [10] = assay: Test Example 3: herbicidal effect by foliage application, Wagner pot (Table 18, symbol H); type: in vivo, barnyard grass (Echinochloa crus-galli); settings: amount of applied herbicide 320 g/ha
Method in brief: as §3

rice flat sedge = assay: Test Example 3: herbicidal effect by foliage application, Wagner pot (Table 18, symbol E); type: in vivo, rice flat sedge (Cyperus iria); settings: amount of applied herbicide 320 g/ha
Method in brief: as §3

southern crabgrass [11] = assay: Test Example 5: herbicidal effect by foliage application, plastic box (Table 20, symbol F); type: in vivo, southern crabgrass (Digitaria ciliaris); settings: foliage application, 320 g/ha, evaluated three weeks after application
Method in brief: as §2

persian speedwell [12] = assay: Test Example 4: herbicidal effect by soil treatment (Table 19, symbol R); type: in vivo, Persian speedwell (Veronica persica); settings: amount of applied herbicide 320 g/ha
Method in brief: as §1

green foxtail [13] = assay: Test Example 4: herbicidal effect by soil treatment (Table 19, symbol G); type: in vivo, green foxtail (Setaria viridis); settings: amount of applied herbicide 320 g/ha
Method in brief: as §1

chickweed [14] = assay: Test Example 4: herbicidal effect by soil treatment (Table 19, symbol P); type: in vivo, common chickweed (Stellaria media); settings: amount of applied herbicide 320 g/ha
Method in brief: as §1

false cleavers = assay: Test Example 4: herbicidal effect by soil treatment (Table 19, symbol Q); type: in vivo, false cleavers (Galium spurium); settings: amount of applied herbicide 320 g/ha
Method in brief: as §1

windgrass [15] = assay: Test Example 4: herbicidal effect by soil treatment (Table 19, symbol L); type: in vivo, windgrass (Apera spica-venti); settings: amount of applied herbicide 320 g/ha
Method in brief: as §1

redroot pigweed [16] = assay: Test Example 5: herbicidal effect by foliage application, plastic box (Table 20, symbol N); type: in vivo, redroot pigweed (Amaranthus retroflexus); settings: foliage application, 320 g/ha, evaluated three weeks after application
Method in brief: as §2

velvetleaf [17] = assay: Test Example 5: herbicidal effect by foliage application, plastic box (Table 20, symbol M); type: in vivo, velvetleaf (Abutilon theophrasti); settings: foliage application, 320 g/ha, evaluated three weeks after application
Method in brief: as §2

southern crabgrass [18] = assay: Test Example 4: herbicidal effect by soil treatment (Table 19, symbol F); type: in vivo, southern crabgrass (Digitaria ciliaris); settings: amount of applied herbicide 320 g/ha
Method in brief: as §1

Italian ryegrass [19] = assay: Test Example 5: herbicidal effect by foliage application, plastic box (Table 20, symbol K); type: in vivo, Italian ryegrass (Lolium multiflorum); settings: foliage application, 320 g/ha, evaluated three weeks after application
Method in brief: as §2

lambsquarters [20] = assay: Test Example 5: herbicidal effect by foliage application, plastic box (Table 20, symbol O); type: in vivo, lambsquarters (Chenopodium album); settings: foliage application, 320 g/ha, evaluated three weeks after application
Method in brief: as §2

persian speedwell [21] = assay: Test Example 5: herbicidal effect by foliage application, plastic box (Table 20, symbol R); type: in vivo, Persian speedwell (Veronica persica); settings: foliage application, 320 g/ha, evaluated three weeks after application
Method in brief: as §2

barnyard grass [22] = assay: Test Example 4: herbicidal effect by soil treatment (Table 19, symbol H); type: in vivo, barnyard grass (Echinochloa crus-galli); settings: amount of applied herbicide 320 g/ha
Method in brief: as §1

chickweed [23] = assay: Test Example 5: herbicidal effect by foliage application, plastic box (Table 20, symbol P); type: in vivo, common chickweed (Stellaria media); settings: foliage application, 320 g/ha, evaluated three weeks after application
Method in brief: as §2

redroot pigweed [24] = assay: Test Example 4: herbicidal effect by soil treatment (Table 19, symbol N); type: in vivo, redroot pigweed (Amaranthus retroflexus); settings: amount of applied herbicide 320 g/ha
Method in brief: as §1

barnyard grass [25] = assay: Test Example 5: herbicidal effect by foliage application, plastic box (Table 20, symbol H); type: in vivo, barnyard grass (Echinochloa crus-galli); settings: foliage application, 320 g/ha, evaluated three weeks after application
Method in brief: as §2

Row | SMILES | herbicidal effect on I: wild oat (criteria 0-5) (wild oat [4]) | herbicidal effect on D: Chinese sprangletop (Chinese sprangletop) | herbicidal effect on J: blackgrass (criteria 0-5) (blackgrass [6]) | herbicidal effect on L: windgrass (criteria 0-5) (windgrass [7]) | herbicidal effect on G: green foxtail (criteria 0-5) (green foxtail [9]) | herbicidal effect on H: barnyard grass (barnyard grass [10]) | herbicidal effect on E: rice flat sedge (rice flat sedge) | herbicidal effect on F: southern crabgrass (criteria 0-5) (southern crabgrass [11]) | herbicidal effect on N: redroot pigweed (criteria 0-5) (redroot pigweed [16]) | herbicidal effect on M: velvetleaf (criteria 0-5) (velvetleaf [17]) | herbicidal effect on K: Italian ryegrass (criteria 0-5) (Italian ryegrass [19]) | herbicidal effect on O: lambsquarters (criteria 0-5) (lambsquarters [20]) | herbicidal effect on R: persian speedwell (criteria 0-5) (persian speedwell [21]) | herbicidal effect on P: chickweed (criteria 0-5) (chickweed [23]) | herbicidal effect on H: barnyard grass (criteria 0-5) (barnyard grass [25]) | further results
1 | CCCC(=O)Oc1c(C)nn(C)c(=O)c1-c1c(-c2ccc3c(c2)OCO3)sc2ccc(C)cc12 [2-157] | 0 (Herbicidal rate of 5% or less (almost no effect)) | 0 (Herbicidal rate of 5% or less (almost no effect)) | 0 (Herbicidal rate of 5% or less (almost no effect)) | 0 (Herbicidal rate of 5% or less (almost no effect)) | 0 (Herbicidal rate of 5% or less (almost no effect)) | 3 (Herbicidal rate of 40% or more and less than 70%) | 0 (Herbicidal rate of 5% or less (almost no effect)) | 0 (Herbicidal rate of 5% or less (almost no effect)) | 3 (Herbicidal rate of 40% or more and less than 70%) | 0 (Herbicidal rate of 5% or less (almost no effect)) | 0 (Herbicidal rate of 5% or less (almost no effect)) | 0 (Herbicidal rate of 5% or less (almost no effect)) | 4 (Herbicidal rate of 70% or more and less than 90%) | 0 (Herbicidal rate of 5% or less (almost no effect)) | 0 (Herbicidal rate of 5% or less (almost no effect)) | K: Italian ryegrass, herbicidal effect rating (Italian ryegrass [1]): 0 (Herbicidal rate of 5% or less (almost no effect)); J: blackgrass, herbicidal effect rating (blackgrass [2]): 0 (Herbicidal rate of 5% or less (almost no effect)); O: lambsquarters, herbicidal effect rating (lambsquarters [3]): 0 (Herbicidal rate of 5% or less (almost no effect)); M: velvetleaf, herbicidal effect rating (velvetleaf [5]): 0 (Herbicidal rate of 5% or less (almost no effect)); I: wild oat, herbicidal effect rating (wild oat [8]): 0 (Herbicidal rate of 5% or less (almost no effect)); R: persian speedwell, herbicidal effect rating (persian speedwell [12]): 3 (Herbicidal rate of 40% or more and less than 70%); G: green foxtail, herbicidal effect rating (green foxtail [13]): 0 (Herbicidal rate of 5% or less (almost no effect)); P: chickweed, herbicidal effect rating (chickweed [14]): 4 (Herbicidal rate of 70% or more and less than 90%); Q: false cleavers, herbicidal effect rating (false cleavers): 0 (Herbicidal rate of 5% or less (almost no effect)); L: windgrass, herbicidal effect rating (windgrass [15]): 0 (Herbicidal rate of 5% or less (almost no effect)); F: southern crabgrass, herbicidal effect rating (southern crabgrass [18]): 0 (Herbicidal rate of 5% or less (almost no effect)); H: barnyard grass, herbicidal effect rating (barnyard grass [22]): 0 (Herbicidal rate of 5% or less (almost no effect)); N: redroot pigweed, herbicidal effect rating (redroot pigweed [24]): 0 (Herbicidal rate of 5% or less (almost no effect))
2 | CCSc1cccc(-c2sc3ccc(F)cc3c2-c2c(O)c(C)nn(C)c2=O)c1 [2-242] | 4 (Herbicidal rate of 70% or more and less than 90%) | 0 (Herbicidal rate of 5% or less (almost no effect)) | 0 (Herbicidal rate of 5% or less (almost no effect)) | 4 (Herbicidal rate of 70% or more and less than 90%) | 3 (Herbicidal rate of 40% or more and less than 70%) | 3 (Herbicidal rate of 40% or more and less than 70%) | 2 (Herbicidal rate of 20% or more and less than 40%) | 3 (Herbicidal rate of 40% or more and less than 70%) | 4 (Herbicidal rate of 70% or more and less than 90%) | 3 (Herbicidal rate of 40% or more and less than 70%) | 1 (Herbicidal rate of 5% or more and less than 20%) | 3 (Herbicidal rate of 40% or more and less than 70%) | 5 (Herbicidal rate of 90% or more (almost completely withered)) | 5 (Herbicidal rate of 90% or more (almost completely withered)) | 1 (Herbicidal rate of 5% or more and less than 20%) | herbicidal effect on K: Italian ryegrass (Italian ryegrass [1]): 0 (Herbicidal rate of 5% or less (almost no effect)); herbicidal effect on J: blackgrass (blackgrass [2]): 0 (Herbicidal rate of 5% or less (almost no effect)); herbicidal effect on O: lambsquarters (lambsquarters [3]): 1 (Herbicidal rate of 5% or more and less than 20%); herbicidal effect on M: velvetleaf (velvetleaf [5]): 0 (Herbicidal rate of 5% or less (almost no effect)); herbicidal effect on I: wild oat (wild oat [8]): 0 (Herbicidal rate of 5% or less (almost no effect)); herbicidal effect on R: persian speedwell (persian speedwell [12]): 4 (Herbicidal rate of 70% or more and less than 90%); herbicidal effect on G: green foxtail (green foxtail [13]): 0 (Herbicidal rate of 5% or less (almost no effect)); herbicidal effect on P: chickweed (chickweed [14]): 1 (Herbicidal rate of 5% or more and less than 20%); herbicidal effect on Q: false cleavers (false cleavers): 0 (Herbicidal rate of 5% or less (almost no effect)); herbicidal effect on L: windgrass (windgrass [15]): 0 (Herbicidal rate of 5% or less (almost no effect)); herbicidal effect on F: southern crabgrass (southern crabgrass [18]): 0 (Herbicidal rate of 5% or less (almost no effect)); herbicidal effect on H: barnyard grass (barnyard grass [22]): 0 (Herbicidal rate of 5% or less (almost no effect)); herbicidal effect on N: redroot pigweed (redroot pigweed [24]): 2 (Herbicidal rate of 20% or more and less than 40%)
